Results reported in patent US7795255B2, “Rigidified compounds for modulating heparanase activity” (InSight Biopharmaceuticals Ltd., priority 2005, dated 2010).

Assays:
[1] = target: T1, recombinant human pro-heparanase (H60) (Homo sapiens, UniProt Q9Y251); experiment: Pro-heparanase (H60) activation in a cell-based assay; settings: inhibition of pro-heparanase activation in CHO cells; NI = no inhibition
T1 construct: Heparanase maturation involves the removal of the signal peptide, transforming the 65 kDa pre-pro-heparanase into a 60 kDa pro-heparanase; made in house
T1 sequence (Q9Y251 36-543): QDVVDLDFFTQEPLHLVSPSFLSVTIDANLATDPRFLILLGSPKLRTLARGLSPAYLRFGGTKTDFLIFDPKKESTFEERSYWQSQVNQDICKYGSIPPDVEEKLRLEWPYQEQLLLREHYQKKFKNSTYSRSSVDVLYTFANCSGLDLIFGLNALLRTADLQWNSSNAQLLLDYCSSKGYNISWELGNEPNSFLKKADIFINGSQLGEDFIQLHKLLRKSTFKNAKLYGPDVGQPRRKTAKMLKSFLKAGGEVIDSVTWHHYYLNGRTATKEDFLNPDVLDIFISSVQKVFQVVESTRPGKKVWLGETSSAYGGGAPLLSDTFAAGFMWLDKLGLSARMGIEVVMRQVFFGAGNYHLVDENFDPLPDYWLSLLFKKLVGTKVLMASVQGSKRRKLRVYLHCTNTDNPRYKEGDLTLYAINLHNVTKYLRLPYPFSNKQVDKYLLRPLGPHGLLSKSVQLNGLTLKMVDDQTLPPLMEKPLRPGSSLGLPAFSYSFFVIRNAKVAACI
Experimental: Pro-heparanase (H60) activation in a cell-based assay: Chinese hamster ovary (CHO) cells were grown in complete F12 medium supplemented with 10% fetal calf serum (FCS). […] The plates were incubated for 24 hours in a 37° C. humidified incubator with 5% CO2. […] The plates were further incubated for additional 4 hours. The pro-heparanase was allowed to internalize by the cells and further processed to generate the active 53 kDa heparanase. At the end of the incubation, the cells were lysed by three consecutive cycles of freezing and thawing in a −80° C. freezer and a 37° C. shaker.
The rigidified compounds described herein were tested for inhibition of pro-heparanase activation in the cell-based assay described above.

[2] = target: T2, vascular endothelial growth factor (VEGF) (Homo sapiens, UniProt P15692); experiment: ELISA for determination of binding of VEGF to heparin; settings: for IC50: inhibition of VEGF binding to heparin, NI = no inhibition; for inhibition of VEGF binding to heparin: inhibition towards both growth factors
T2 sequence (P15692 27-191 isoform P15692-4): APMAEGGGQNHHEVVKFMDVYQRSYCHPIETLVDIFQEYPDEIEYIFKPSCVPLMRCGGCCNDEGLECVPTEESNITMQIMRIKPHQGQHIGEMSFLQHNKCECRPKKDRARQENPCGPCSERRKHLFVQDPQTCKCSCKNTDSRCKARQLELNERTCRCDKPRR
Experimental: Enzyme-linked immunosorbent assay (ELISA) for determination of binding of vascular endothelial growth factor (VEGF) to heparin: 96-well microplates were coated for 2 hours. at 23-25° C. with 5 μg/ml heparin-albumin (Rimon Biotech) and blocked with 1% bovine serum albumin (BSA) in phosphate buffer (PBS) with 0.05% Tween and 0.01% thimerosal for 2 hours. VEGF was added to the plates at a concentration of 10 ng/ml and the plates were thereafter incubated for 45 minutes at 23-25° C. The amount of VEGF bound to heparin was detected using anti-VEGF monoclonal antibody (Sigma Cat. No. V4758) at a concentration of 0.26 μg/ml and secondary antibodies Sheep anti-mouse IgG linked to horseradish peroxidase (1:2000) using 3,3′,5,5′-tetramethylbenzidine (TMB, Pierce Cat. No. 34021) as a substrate for peroxidase. The plates were read at 450 nm with a reference wavelength of 630 nm using a VERSAmax plate reader. […] Percent inhibition was calculated as compared with a control pre-incubated with a solution of 1% DMSO and the results are presented in Table 3 below.

β-FGF = β-FGF (Homo sapiens, UniProt P09038); experiment: ELISA for determination of binding of β-FGF to heparin; settings: for IC50: inhibition of β-FGF binding to heparin, NI = no inhibition; for inhibition of β-FGF binding to heparin: inhibition towards both growth factors
β-FGF, sequence (P09038 143-288): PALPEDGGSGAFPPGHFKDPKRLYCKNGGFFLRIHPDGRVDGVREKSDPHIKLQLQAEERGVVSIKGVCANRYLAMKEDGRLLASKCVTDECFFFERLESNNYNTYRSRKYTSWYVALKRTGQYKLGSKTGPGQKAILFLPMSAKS
Experimental: ELISA for determination of binding of β-FGF to heparin: 96-well microplates were coated for 2 hours at 23-25° C. with 5 μg/ml heparin-albumin (Rimon Biotech) and blocked with 1% BSA in PBS, with 0.05% Tween, and 0.01% thimerosal for 2 hours. β-FGF was added to the plates at a concentration of 10 ng/ml and plates were incubated for 45 minutes at 23-25° C. The amount of β-FGF bound to heparin was detected using anti-FGF monoclonal antibody (Sigma Cat. No. F6162) at a concentration of 2.5 ng/ml and secondary antibodies Sheep anti-mouse IgG linked to horseradish peroxidase (1:3000) TMB (Pierce Cat. No. 34021) was used as a substrate for peroxidase. The plates were read at 450 nm with a reference wavelength of 630 nm using a VERSAmax plate reader.

| SMILES | IC50 [1] [nM] | IC50 [2] [nM] | IC50 (β-FGF) [nM] | inhibition of VEGF binding to heparin [2] | inhibition of β-FGF binding to heparin (β-FGF) |
| --- | --- | --- | --- | --- | --- |
| CCOC(=O)CCCN1C(=O)c2cc3oc(-c4ccc(Cl)cc4)cc3n2C1=S [Compound 4, ethyl 4-[2-(4-chloro-phenyl)-6-oxo-4-thioxo-6H-1-oxa-3b,5-diaza-cyclopenta[a]pentalen-5-yl]-butyric acid ethyl ester] | 760 | 130 | 60 |  |  |
| CCOC(=O)CC(C)(C)CN1C(=O)c2cc3oc(-c4ccc([N+](=O)[O-])cc4)cc3n2C1=S [Compound 7, 3,3-dimethyl-4-[2-(4-nitro-phenyl)-6-oxo-4-thioxo-6H-1-oxa-3b,5-diaza-cyclopenta[a]pentalen-5-yl]-butyric acid ethyl ester] | 2600 | 100 | 50 | sub-micromolar | sub-micromolar |
| CCOC(=O)CC(C)(C)CN1C(=O)c2cc3oc(-c4ccc(Cl)cc4)cc3n2C1=S [Compound 10, 4-[2-(4-Chloro-phenyl)-6-oxo-4-thioxo-6H-1-oxa-3b,5-diaza-cyclopenta[a]pentalen-5-yl]-3,3-dimethyl-butyric acid ethyl ester] | 1500 | 170 | 200 | sub-micromolar | sub-micromolar |
| CCN(CC)C(=O)CC(C)(C)CN1C(=O)c2cc3oc(-c4ccc(Cl)cc4)cc3n2C1=S [Compound 13, 4-[2-(4-Chloro-phenyl)-6-oxo-4-thioxo-6H-1-oxa-3b,5-diaza-cyclopenta[a]pentalen-5-yl]-N,N-diethyl-3,3-dimethyl-butyramide] | 1400 | 550 | 220 | sub-micromolar | sub-micromolar |
| CN(C)CCNC(=O)CC(C)(C)CN1C(=O)c2cc3oc(-c4ccc(Cl)cc4)cc3n2C1=S [Compound 14, 4-[2-(4-Chloro-phenyl)-6-oxo-4-thioxo-6H-1-oxa-3b,5-diaza-cyclopenta[a]pentalen-5-yl]-N-(2-dimethylamino-ethyl)-3,3-dimethyl-butyramide] | 120 | 260 | 470 | sub-micromolar | sub-micromolar |
| CN(C)CCCNC(=O)CC(C)(C)CN1C(=O)c2cc3oc(-c4ccc(Cl)cc4)cc3n2C1=S [Compound 15, 4-[2-(4-Chloro-phenyl)-6-oxo-4-thioxo-6H-1-oxa-3b,5-diaza-cyclopenta[a]pentalen-5-yl]-N-(3-dimethylamino-propyl)-3,3-dimethyl-butyramide] | 160 | 180 | 440 | sub-micromolar | sub-micromolar |
| CC(C)(CC(=O)N1CCOCC1)CN1C(=O)c2cc3oc(-c4ccc(Cl)cc4)cc3n2C1=S [Compound 17, 2-(4-Chloro-phenyl)-5-(2,2-dimethyl-4-morpholin-4-yl-4-oxo-butyl)-4-thioxo-4,5-dihydro-1-oxa-3b,5-diaza-cyclopenta[a]pentalen-6-one] | 150 | 420 | 870 | sub-micromolar | sub-micromolar |
| CC(C)(CC(=O)NCC(=O)O)CN1C(=O)c2cc3oc(-c4ccc(Cl)cc4)cc3n2C1=S [Compound 18, {4-[2-(4-Chloro-phenyl)-6-oxo-4-thioxo-6H-1-oxa-3b,5-diaza-cyclopenta[a]pentalen-5-yl]-3,3-dimethyl-butyrylamino}-acetic acid] | 460 | 2000 | 1400 |  |  |
| CC(C)(CC(=O)NCC(=O)OC(C)(C)C)CN1C(=O)c2cc3oc(-c4ccc(Cl)cc4)cc3n2C1=S [Compound 19, {4-[2-(4-Chloro-phenyl)-6-oxo-4-thioxo-6H-1-oxa-3b,5-diaza-cyclopenta[a]pentalen-5-yl]-3,3-dimethyl-butyrylamino}-acetic acid tert-butyl ester] | 420 | 510 | 500 | sub-micromolar | sub-micromolar |

Next, values leading:

| IC50 [1] [nM] | IC50 [2] [nM] | IC50 (β-FGF) [nM] | inhibition of VEGF binding to heparin [2] | inhibition of β-FGF binding to heparin (β-FGF) | SMILES |
| --- | --- | --- | --- | --- | --- |
| 320 | 420 | 350 | sub-micromolar | sub-micromolar | COC(=O)CN(C)C(=O)CC(C)(C)CN1C(=O)c2cc3oc(-c4ccc(Cl)cc4)cc3n2C1=S [Compound 20, ({4-[2-(4-Chloro-phenyl)-6-oxo-4-thioxo-6H-1-oxa-3b,5-diaza-cyclopenta[a]pentalen-5-yl]-3,3-dimethyl-butyryl}-methyl-amino)-acetic acid methyl ester] |
| 1500 | 90 | 150 | sub-micromolar | sub-micromolar | CCN(CC)C(=O)CC1(CN2C(=O)c3cc4oc(-c5ccc(Cl)cc5)cc4n3C2=S)CCCCC1 [Compound 24, 2-{1-[2-(4-Chloro-phenyl)-6-oxo-4-thioxo-6H-1-oxa-3b,5-diaza-cyclopenta[a]pentalen-5-ylmethyl]-cyclohexyl}-N,N-diethyl-acetamide] |
| 2700 | 140 | 120 |  |  | CCOC(=O)CCCN1C(=O)c2cc3oc(-c4cccc(C(F)(F)F)c4)cc3n2C1=S [Compound 25, ethyl 4-[6-oxo-4-thioxo-2-(3-trifluoromethyl-phenyl)-6H-1-oxa-3b,5-diaza-cyclopenta[a]pentalen-5-yl]-butyric acid ethyl ester] |
| 6600 | 170 | 20 | sub-micromolar | sub-micromolar | COCCCN1C(=O)c2cc3oc(-c4ccc(Cl)cc4)cc3n2C1=S [Compound 28, 2-(4-Chloro-phenyl)-5-(3-methoxy-propyl)-4-thioxo-4,5-dihydro-1-oxa-3b,5-diaza-cyclopenta[a]pentalen-6-one] |
| 370 | 480 | 810 | sub-micromolar | sub-micromolar | Cc1c(N2C(=O)c3cc4oc(-c5ccc(Cl)cc5)cc4n3C2=S)c(=O)n(-c2ccccc2)n1C [Compound 29, 2-(4-chloro-phenyl)-5-(1,5-dimethyl-3-oxo-2-phenyl-2,3-dihydro-1H-pyrazol-4-yl)-4-thioxo-4,5-dihydro-1-oxa-3b,5-diaza-cyclopenta[a]pentalen-6-one] |
